Laboratory results published in patent US7405063B2, “Biooxidation capabilities of Candida sp” (Cognis Corporation, priority 2000, dated 2008).
Read-outs that look alike come from different tables or passages of the source.

Columns and labels:
[1] = tested on: C. tropicalis strain H5343; conditions: for nontoxic concentration of solvent: growth of strain H5343; for ABS Lambda = 600.0 nm: 24 h, 30° C., dilution in YPD 1:100
[2] = tested on: C. tropicalis strain H5343; test: Toxicity tests of substrates (growth by absorbance at 600 nm, streak plates); format: cell-based; conditions: 48 h, 30° C., dilution in YPD 1:100
Method: The toxicity test used here was similar to that used for the solvents described in Example 1. The goal was to determine the highest concentration at which a substrate could be added to a culture broth without being toxic, inhibiting growth, or interfering with the bioconversion process. C. tropicalis strain H5343 was grown in the presence of the substrate at different concentrations and growth was monitored spectrophotometrically. In order to determine if the substrate was lethal or was simply inhibiting growth, the cultures were examined under the microscope and streak plates of YPD and LB agar were prepared. Contamination of the culture with an unwanted organism could also be detected using this approach.
6 ml was transferred to the first tube and 3 ml to the rest. 1% substrate was added to the first tube and then serially diluted to give concentrations from 1% to 0.015%. Since the last tube was initially empty, the concentration in the last two tubes was the same. […] As a growth-control one culture without substrate was inoculated.
To determine if contamination had occurred, each culture was examined under the microscope and streak plates of both YPD and LB were made from the 1% and the inoculated 0.015% tube.

C. tropicalis = test: Toxicity tests of additional substrates (absorbance at 600 nm); format: cell-based; conditions: for Absorbance at 600 nm: 24 hours, added without solvent
Method: Additional substrates were to be tested for bioconversion following a slightly different protocol than the one noted above in Example 3. Those substrates also had to be tested for toxicity similar to the test described in Example 2, to determine the highest concentration at which a substrate could be added to a culture broth without being toxic, inhibiting growth, or interfering with the bioconversion process. C. tropicalis was grown in the presence of the substrate at three different concentrations and growth was monitored spectrophotometrically. In contrast to Example 2, all test substrates were added directly to the culture medium without dissolving in solvent. The tests were completed as follows:
On the first day, H5343 was grown in YPD medium (25.0 ml seed culture) overnight on a rotary shaker at 30° C. and 250 rpm. The next day 1.0 ml of the seed culture was used to inoculate a new flask of 50 ml YPD. This culture was grown overnight on a rotary shaker at 30° C. and 250 rpm. […]
Two control flasks were each inoculated with H5343 in 25 ml YPD. All flasks were incubated on a rotary shaker at 30° C. and 250 rpm.
After 24 hours incubation, the absorbance at 600 nm of the test and control flask cultures was determined, using uninoculated YPD broth as blank. Cultures were diluted so that the OD^600 nm measured between 0.15 and 0.3.
For strongly inhibitory substrates, a concentration of 0.1-0.2% was chosen for the bioconversion tests.

## CC(C)=O [Acetone]
[1]
  nontoxic concentration of solvent: ≤ 4%
[1]; solvent concentration 0.25%
  ABS Lambda = 600.0 nm: 0.123
[1]; solvent concentration 0.5%
  ABS Lambda = 600.0 nm: 0.183
[1]; solvent concentration 1%
  ABS Lambda = 600.0 nm: 0.111
[1]; solvent concentration 2%
  ABS Lambda = 600.0 nm: 0.149
[1]; solvent concentration 4%
  ABS Lambda = 600.0 nm: 0.087

## CCCCCC [Hexane]
[1]
  nontoxic concentration of solvent: 2%
[1]; solvent concentration 0.25%
  ABS Lambda = 600.0 nm: 0.119
[1]; solvent concentration 0.5%
  ABS Lambda = 600.0 nm: 0.148
[1]; solvent concentration 1%
  ABS Lambda = 600.0 nm: 0.119
[1]; solvent concentration 2%
  ABS Lambda = 600.0 nm: 0.126
[1]; solvent concentration 4%
  ABS Lambda = 600.0 nm: 0.005

## CCO [Ethanol]
[1]
  nontoxic concentration of solvent: 4%
[1]; solvent concentration 0.25%
  ABS Lambda = 600.0 nm: 0.122
[1]; solvent concentration 0.5%
  ABS Lambda = 600.0 nm: 0.104
[1]; solvent concentration 1%
  ABS Lambda = 600.0 nm: 0.137
[1]; solvent concentration 2%
  ABS Lambda = 600.0 nm: 0.119
[1]; solvent concentration 4%
  ABS Lambda = 600.0 nm: 0.090

## CCCCCCCCC(CO)CCCCCC (centres unmarked) [2-Hexyl-1-decanol]
[2]; substrate concentration 0.01563%
  ABS 600.0 nm: 0.120
[2]; substrate concentration 0.0313%
  ABS 600.0 nm: 0.145
[2]; substrate concentration 0.063%
  ABS 600.0 nm: 0.110
[2]; substrate concentration 0.13%
  ABS 600.0 nm: 0.273
[2]; substrate concentration 0.25%
  ABS 600.0 nm: 0.145
[2]; substrate concentration 0.5%
  ABS 600.0 nm: 0.122
[2]; substrate concentration 1%
  ABS 600.0 nm: 0.117
C. tropicalis; substrate concentration 0.1%
  Absorbance at 600 nm: 24.43
C. tropicalis; substrate concentration 0.5%
  Absorbance at 600 nm: 19.73
C. tropicalis; substrate concentration 1.0%
  Absorbance at 600 nm: 11.93

## CCCCC(C(=O)O)C(=O)O [Butylmalonic Acid]
C. tropicalis; substrate concentration 0.1%
  Absorbance at 600 nm: 27.43
C. tropicalis; substrate concentration 0.5%
  Absorbance at 600 nm: 27.13
C. tropicalis; substrate concentration 1.0%
  Absorbance at 600 nm: 8.53

## C=CCCCCCCCCCCCCCCCC [1-Octadecene]
C. tropicalis; substrate concentration 0.1%
  Absorbance at 600 nm: 34.93
C. tropicalis; substrate concentration 0.5%
  Absorbance at 600 nm: 36.33
C. tropicalis; substrate concentration 1.0%
  Absorbance at 600 nm: 34.7

## CCCCCCOCCCCCC [Hexyl Ether, Dihexyl Ether]
C. tropicalis; substrate concentration 0.1%
  Absorbance at 600 nm: 12.85
C. tropicalis; substrate concentration 0.5%
  Absorbance at 600 nm: 13.21
C. tropicalis; substrate concentration 1.0%
  Absorbance at 600 nm: 3.33

## CCCCC1CCCCC1 [Butylcyclohexane]
C. tropicalis; substrate concentration 0.1%
  Absorbance at 600 nm: 22.03
C. tropicalis; substrate concentration 0.5%
  Absorbance at 600 nm: 21.13
C. tropicalis; substrate concentration 1.0%
  Absorbance at 600 nm: 20.33

## CCCCCCC(C)O (centres unmarked) [2-Octanol]
C. tropicalis; Phase II screening summary
  Toxic at (concentration): Toxic at 0.1%
C. tropicalis; substrate concentration 0.1%
  Absorbance at 600 nm: 0.250
C. tropicalis; substrate concentration 0.5%
  Absorbance at 600 nm: 0.235
C. tropicalis; substrate concentration 1.0%
  Absorbance at 600 nm: 0.285

## CCCCCCC(CO)CCCC (centres unmarked) [2-Butyl-1-octanol]
C. tropicalis; substrate concentration 0.1%
  Absorbance at 600 nm: 10.53
C. tropicalis; substrate concentration 0.5%
  Absorbance at 600 nm: 8.973
C. tropicalis; substrate concentration 1.0%
  Absorbance at 600 nm: 6.213
